Test results: PubChem BioAssay (NCI)
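The compound was tested at five concentrations on cells cultured in 96-well plates, with a 48-hour exposure period. GI50: concentration for 50% inhibition of growth. At the TGI there is no net growth.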

Legend:
Experiment in all cases: NCI tumour cell line growth inhibition, 48 h; in the data active means GI50 below about 0.43 µM; inactive means the rest
[1] = tested on: LOX IMVI melanoma
[2] = tested on: KM12 colon
[3] = tested on: HCT-15 colon
[4] = tested on: OVCAR-5 ovarian
[5] = tested on: T-47D breast
[6] = tested on: MALME-3M melanoma
[7] = tested on: PC-3 prostate
[8] = tested on: U251 CNS
[9] = tested on: HCT-116 colon
[10] = tested on: NCI-H226 lung
[11] = tested on: NCI-H23 lung
[12] = tested on: HL-60(TB) leukemia
[13] = tested on: NCI/ADR-RES ovarian
[14] = tested on: SK-MEL-5 melanoma
[15] = tested on: DU-145 prostate
[16] = tested on: MDA-MB-435
[17] = tested on: K-562 leukemia
[18] = tested on: SK-MEL-2 melanoma
[19] = tested on: UACC-62 melanoma
[20] = tested on: COLO 205 colon
[21] = tested on: IGROV1 ovarian
[22] = tested on: HS 578T breast
[23] = tested on: HOP-92 NSCLC
[24] = tested on: 786-0 renal
[25] = tested on: CCRF-CEM leukemia
[26] = tested on: RPMI-8226 leukemia
[27] = tested on: UACC-257 melanoma
[28] = tested on: HOP-62 NSCLC
[29] = tested on: M14 melanoma
[30] = tested on: A498 renal
[31] = tested on: OVCAR-8 ovarian
[32] = tested on: BT-549 breast
[33] = tested on: CAKI-1 renal
[34] = tested on: HCC-2998 colon
[35] = tested on: TK-10 renal
[36] = tested on: MDA-MB-231 breast
[37] = tested on: MCF7 breast
[38] = tested on: SK-MEL-28 melanoma
[39] = tested on: A549 NSCLC
[40] = tested on: NCI-H522 lung
[41] = tested on: HT29 colon
[42] = tested on: SF-539 CNS
[43] = tested on: SNB-75 CNS
[44] = tested on: RXF 393 renal
[45] = tested on: SK-OV-3 ovarian
[46] = tested on: ACHN renal
[47] = tested on: OVCAR-3 ovarian
[48] = tested on: SW-620 colon
[49] = tested on: UO-31 renal
[50] = tested on: NCI-H460 lung
[51] = tested on: SR leukemia
[52] = tested on: SN12C renal
[53] = tested on: OVCAR-4 ovarian
[54] = tested on: SF-268 CNS
[55] = tested on: MOLT-4 leukemia
[56] = tested on: SF-295 CNS
[57] = tested on: SNB-19 CNS

CC(C)(C)[Si](C)(C)OC1[C@@H](O[Si](C)(C)C(C)(C)C)[C@@H](CNC(=O)NC(=O)C(F)(F)F)O[C@H]1n1cnc2c(NC(=O)Nc3ccccc3)ncnc21 (stereo partly specified)
14.2 µM: TGI [36]
16.4 µM: TGI [16]
19.5 µM: TGI [6]
9.18 µM: TGI [14]
10.9 µM: TGI [53]
13.4 µM: TGI [24] | TGI [32] | TGI [54]
8.22 µM: TGI [52]
8.47 µM: TGI [9]
14.1 µM: TGI [28]
5.25 µM: TGI [51]
26.4 µM: TGI [12]
11.5 µM: TGI [46]
8.07 µM: TGI [37]
12.3 µM: TGI [1]
14.5 µM: TGI [8] | TGI [47]
11.4 µM: TGI [2]
17.2 µM: TGI [22] | TGI [35]
12.8 µM: TGI [20]
15.7 µM: TGI [45] | TGI [48] | TGI [50]
12.4 µM: TGI [39]
7.03 µM: TGI [55]
15.6 µM: TGI [49]
24.7 µM: TGI [17]
15 µM: TGI [27]
17 µM: TGI [33]
16.6 µM: TGI [11] | TGI [40]
11.8 µM: TGI [5] | TGI [10] | TGI [23]
10.6 µM: TGI [34]
7.91 µM: TGI [7]
16.7 µM: TGI [31]
17.4 µM: TGI [21]
14.6 µM: TGI [4]
4.25 µM: TGI [44]
11.1 µM: TGI [41]
inactive: GI50 [1] 6.12 µM | GI50 [2] 4.02 µM | GI50 [3] 2.94 µM | GI50 [4] 7.89 µM | GI50 [5] 5.64 µM | GI50 [6] 10.4 µM | GI50 [7] 1.82 µM | GI50 [8] 7.4 µM | GI50 [9] 2.46 µM | GI50 [10] 4.61 µM | GI50 [11] 8.77 µM | GI50 [12] 9.3 µM | GI50 [13] 7.56 µM | GI50 [14] 2.72 µM | GI50 [15] 6.52 µM | GI50 [16] 5.52 µM | GI50 [17] 8.16 µM | GI50 [18] 9.37 µM | GI50 [19] 7.45 µM | GI50 [20] 6.03 µM | GI50 [21] 8.32 µM | GI50 [22] 4.5 µM | GI50 [23] 5.2 µM | GI50 [24] 6.58 µM | GI50 [25] 7.31 µM | GI50 [26] 7.11 µM | GI50 [27] 7.19 µM | GI50 [28] 7.41 µM | GI50 [29] 5.72 µM | GI50 [30] 6.34 µM | GI50 [31] 7.76 µM | GI50 [32] 6.81 µM | GI50 [33] 8.24 µM | GI50 [34] 4.28 µM | GI50 [35] 9.77 µM | GI50 [36] 6.16 µM | GI50 [37] 2.05 µM | GI50 [38] 8.04 µM | GI50 [39] 4.5 µM | GI50 [40] 9.14 µM | GI50 [41] 4.33 µM | GI50 [42] 6.74 µM | GI50 [43] 5.68 µM | GI50 [44] 1.3 µM | GI50 [45] 8.74 µM | GI50 [46] 5.54 µM | GI50 [47] 7.63 µM | GI50 [48] 7.53 µM | GI50 [49] 7.68 µM | GI50 [50] 6.39 µM | GI50 [51] 1.52 µM | GI50 [52] 1.96 µM | GI50 [53] 3.98 µM | GI50 [54] 6.22 µM | GI50 [55] 1.67 µM
28.6 µM: TGI [26]
9.12 µM: TGI [3]
17.3 µM: TGI [18]
14.7 µM: TGI [13]
41.6 µM: TGI [25]
15.9 µM: TGI [19]
15.2 µM: TGI [38]
12.7 µM: TGI [43]
13 µM: TGI [30]
13.2 µM: TGI [15] | TGI [29] | TGI [42]

Cc1ccc(NC2=C3CCCCC3OC2=O)cc1 (stereo unspecified)
86 µM: TGI [55]
inactive: GI50 [2] > 100 µM | GI50 [3] > 100 µM | GI50 [4] > 100 µM | GI50 [5] 29.3 µM | GI50 [6] 39.2 µM | GI50 [7] 49.7 µM | GI50 [9] 66.1 µM | GI50 [10] 87.1 µM | GI50 [11] 60.5 µM | GI50 [12] 55.6 µM | GI50 [13] > 100 µM | GI50 [14] 34.9 µM | GI50 [56] 75 µM | GI50 [15] 88.8 µM | GI50 [16] 55.2 µM | GI50 [17] 45.1 µM | GI50 [19] 47 µM | GI50 [20] 78.1 µM | GI50 [21] 54.3 µM | GI50 [22] > 100 µM | GI50 [24] > 100 µM | GI50 [25] 21.6 µM | GI50 [26] 34.5 µM | GI50 [27] 63.1 µM | GI50 [28] > 100 µM | GI50 [29] > 100 µM | GI50 [30] 65.9 µM | GI50 [31] 78.4 µM | GI50 [32] > 100 µM | GI50 [33] 49.5 µM | GI50 [34] > 100 µM | GI50 [35] > 100 µM | GI50 [36] 35.2 µM | GI50 [37] 20.5 µM | GI50 [38] > 100 µM | GI50 [39] > 100 µM | GI50 [40] 29 µM | GI50 [41] 79.8 µM | GI50 [57] 63.8 µM | GI50 [42] > 100 µM | GI50 [43] 71.9 µM | GI50 [44] > 100 µM | GI50 [45] > 100 µM | GI50 [46] > 100 µM | GI50 [47] 68.7 µM | GI50 [48] > 100 µM | GI50 [49] 27.6 µM | GI50 [50] > 100 µM | GI50 [51] 39.5 µM | GI50 [52] 93 µM | GI50 [53] 43.2 µM | GI50 [54] > 100 µM | GI50 [55] 19.1 µM
84.2 µM: TGI [25]
> 100 µM: TGI [2] | TGI [3] | TGI [4] | TGI [5] | TGI [6] | TGI [7] | TGI [9] | TGI [10] | TGI [11] | TGI [12] | TGI [13] | TGI [14] | TGI [56] | TGI [15] | TGI [16] | TGI [17] | TGI [19] | TGI [20] | TGI [21] | TGI [22] | TGI [24] | TGI [26] | TGI [27] | TGI [28] | TGI [29] | TGI [30] | TGI [31] | TGI [32] | TGI [33] | TGI [34] | TGI [35] | TGI [36] | TGI [37] | TGI [38] | TGI [39] | TGI [40] | TGI [41] | TGI [57] | TGI [42] | TGI [43] | TGI [44] | TGI [45] | TGI [46] | TGI [47] | TGI [48] | TGI [49] | TGI [50] | TGI [51] | TGI [52] | TGI [53] | TGI [54]
